Results as given in patent US12466840B2, “Small molecule inhibitors of KRAS proteins” (Merck Sharp & Dohme LLC, priority 2023, dated 2025).

How the values were obtained:
Format in all cases: biochemical
[1] = biological target: KRAS G12D (Homo sapiens (Human), UniProt P01116, G12D); test: SOS-catalyzed nucleotide exchange assay (GNE), KRAS G12D; details: TR-FRET, 60 min preincubation
Source text: (§1) Procedure for SOS-Catalyzed Nucleotide Exchange Assay for KRAS-WT, G12C/D/V/A/R/S, G13D, Q61H, HRAS-WT, and NRAS-WT
(§2) Recombinant KRAS-G12C protein used in this assay has an additional triple mutation (C51S/C80L/C118S). Whereas KRAS-WT, G12D/V/A/S/R, G13D, Q61H, HRAS and NRAS are in context of their WT protein sequence background. Specifically, the SOS-catalyzed nucleotide exchange assay utilizes a preformed TR-FRET complex containing a specific biotinylated RAS protein (KRAS-WT, G12C/V/D/A/S/R, G13D, Q61H, HRAS-WT, NRAS-WT; described above) with Bodipy-GDP, and Terbium-streptavidin. Compounds are preincubated with this complex for 60 minutes. Subsequently, recombinant human SOS protein and unlabeled GTP are added to initiate the exchange reaction. Small molecule inhibitors stabilize the Bodipy-GDP complex whereas the untreated protein rapidly exchanges Bodipy-GDP for unlabeled GTP resulting in reduced TR-FRET signal.
(§3) To assemble the preformed TR-FRET complexes, each biotinylated RAS protein is diluted to 2 μM in an EDTA Buffer (20 mM HEPES pH 7.5, 50 mM sodium chloride, 10 mM EDTA, and 0.01% Tween) and incubated at room temperature for one hour. This mixture is then further diluted to 90 nM in an Assay Buffer (20 mM HEPES pH 7.5, 150 mM sodium chloride, 10 mM magnesium chloride, and 0.005% Tween) containing 15 nM of Terbium-Streptavidin (Invitrogen, catalog #PV3577) and 900 nM of Bodipy-GDP (Invitrogen, catalog #G22360) and incubated at room temperature for six hours. It should be noted that this preformed TR-FRET complex for each of the RAS protein were made ahead of time, aliquoted and stored at −80° C. until the day of the experiment.
(§4) Each test compound (10 mM stock in DMSO) is diluted in DMSO to make a final-10-point, 3-fold dilution and is acoustically dispensed into a 384-well assay plate (Corning, catalog #3820) using an Echo 550 (Labcyte). Each well of the assay plate receives 3 μL of a specific 3×RAS preformed TR-FRET complex and 3 μL of Assay Buffer and is incubated at room temperature for 60 minutes (preincubation time). Each well then receives 3 μL of 3× recombinant human SOS protein and GTP (Sigma, G8877) in Assay Buffer and is incubated at room temperature for 30 minutes (G13D), 60 minutes (KRAS WT/G12C/D, H/NRAS) or 90 minutes for G12A/R/S/V and Q61H. The final reaction in each well of 9 μL consists of 3 mM GTP, specific Ras and SOS proteins in the following concentrations: KRAS-G12C/SOS=3 nM/40 nM, KRAS-WT and G12D/SOS=1 nM/40 nM, KRAS-G12V/SOS=1.25 nM/160 nM, KRAS-G12A/S/SOS=1 nM/160 nM, KRAS-G12R/SOS=1 nM/320 nM, KRAS-Q61H/SOS=1 nM/320 nM, KRAS-G13D/SOS=1.25 nM/[…], HRAS-WT and NRAS-WT=1.25 nM/40 nM.
(§5) The time-resolved fluorescence resonance energy transfer (TR-FRET) signal is measured on an Envision (PerkinElmer) plate reader: Excitation filter=340 nm; emission1=495 nm; emission2=520 nm; dichroic mirror=D400/D505; delay time=[…]. The signal of each well is determined as the ratio of the emission at 520 nm to that at 495 nm. Percent effect of each well is determined after normalization to control wells containing DMSO (no effect) or a saturating concentration of inhibitor (max effect). The apparent effect as a function of compound concentration is fit to a four-parameter logistic equation.

[2] = biological target: KRAS G12V (Homo sapiens (Human), UniProt P01116, G12V); test: SOS-catalyzed nucleotide exchange assay (GNE), KRAS G12V; details: TR-FRET, 60 min preincubation
KRAS G12V, sequence (P01116 other isoform, or with tags, fused parts or gaps G12V (already in the parent)): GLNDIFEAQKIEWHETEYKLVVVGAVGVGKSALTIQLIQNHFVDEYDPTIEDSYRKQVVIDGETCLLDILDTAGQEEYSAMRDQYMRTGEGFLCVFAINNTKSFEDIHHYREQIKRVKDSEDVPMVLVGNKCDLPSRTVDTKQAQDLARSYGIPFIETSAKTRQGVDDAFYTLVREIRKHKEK
Source text: as §1, §2, §3, §4, §5

[3] = biological target: KRAS G12C (Homo sapiens (Human), UniProt P01116, C118S/C51S/C80L/G12C); test: SOS-catalyzed nucleotide exchange assay (GNE), KRAS G12C; details: TR-FRET, 60 min preincubation; protein with C51S/C80L/C118S
KRAS G12C, sequence (P01116 other isoform, or with tags, fused parts or gaps, stated change not applied): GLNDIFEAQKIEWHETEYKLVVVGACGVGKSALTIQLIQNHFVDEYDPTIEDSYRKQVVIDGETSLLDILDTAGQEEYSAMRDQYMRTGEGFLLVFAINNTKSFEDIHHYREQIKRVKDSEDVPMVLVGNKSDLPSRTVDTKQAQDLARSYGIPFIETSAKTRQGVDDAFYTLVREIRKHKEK
Source text: as §1, §2, §3, §4, §5

KRAS G12D, sequence (P01116 other isoform, or with tags, fused parts or gaps G12D (already in the parent)): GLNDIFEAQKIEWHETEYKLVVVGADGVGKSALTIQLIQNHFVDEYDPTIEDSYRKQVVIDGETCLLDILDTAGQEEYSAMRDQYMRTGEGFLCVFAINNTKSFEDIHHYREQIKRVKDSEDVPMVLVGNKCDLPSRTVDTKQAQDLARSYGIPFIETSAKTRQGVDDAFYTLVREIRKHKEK

| Structure (SMILES) | IC50 [1] | IC50 [2] | IC50 [3] |
| --- | --- | --- | --- |
| CCc1c(F)ccc2cc3[nH]nc(C)c3c(-c3nc4c5c(nc(OC[C@@]67CCCN6C[C@H](F)C7)nc5c3F)N3CCCOC[C@H]3CO4)c12 [Ex-6, (8aS)-5-(5-ethyl-6-fluoro-3-methyl-1H-benzo[f]indazol-4-yl)-4-fluoro-2-(((2R,7aS)-2-fluorotetrahydro-1H-pyrrolizin-7a(5H)-yl)methoxy)-8a,9,12,13-tetrahydro-8H,11H-7,10-dioxa-1,3,6,13a-tetraazanaphtho[1,8-ab]heptalene] | 1.3 nM | 1.5 nM | 6.5 nM |
| F/C=C1/CN2CCC[C@@]2(COc2nc3c4c(nc(-c5c(C6CC6)c(Cl)cc6[nH]ncc56)c(F)c4n2)OC[C@@H]2COCCCN32)C1 [Ex-1, (8aS)-5-(6-chloro-5-cyclopropyl-1H-indazol-4-yl)-4-fluoro-2-(((S,Z)-2-(fluoromethylene)tetrahydro-1H-pyrrolizin-7a(5H)-yl)methoxy)-8a,9,12,13-tetrahydro-8H,11H-7,10-dioxa-1,3,6,13a-tetraazanaphtho[1,8-ab]heptalene] | 0.67 nM | 1.3 nM | 6.9 nM |
| CCc1c(F)ccc2cc3[nH]ncc3c(-c3nc4c5c(nc(OC[C@@]67CCCN6C[C@H](F)C7)nc5c3F)N3CCCOC[C@H]3CO4)c12 [Ex-2, (8aS)-5-(5-ethyl-6-fluoro-1H-benzo[f]indazol-4-yl)-4-fluoro-2-(((2R,7aS)-2-fluorotetrahydro-1H-pyrrolizin-7a(5H)-yl)methoxy)-8a,9,12,13-tetrahydro-8H,11H-7,10-dioxa-1,3,6,13a-tetraazanaphtho[1,8-ab]heptalene] | 0.65 nM | 1.3 nM | 3.2 nM |
| CCc1c(F)ccc2cc3[nH]ncc3c(-c3nc4c5c(nc(OC[C@@]67CCCN6C/C(=C\F)C7)nc5c3F)N3CCCOC[C@H]3CO4)c12 [Ex-4, (8aS)-5-(5-ethyl-6-fluoro-1H-benzo[f]indazol-4-yl)-4-fluoro-2-(((S,Z)-2-(fluoromethylene)tetrahydro-1H-pyrrolizin-7a(5H)-yl)methoxy)-8a,9,12,13-tetrahydro-8H,11H-7,10-dioxa-1,3,6,13a-tetraazanaphtho[1,8-ab]heptalene] | < 0.69 nM | 0.83 nM | 2.9 nM |
| F/C=C1\CN2CCC[C@@]2(COc2nc3c4c(nc(-c5c(C6(F)CC6)c(Cl)cc6[nH]ncc56)c(F)c4n2)OC[C@@H]2COCCCN32)C1 [Ex-5, (8aS)-5-(6-chloro-5-(1-fluorocyclopropyl)-1H-indazol-4-yl)-4-fluoro-2-(((S,Z)-2-(fluoromethylene)tetrahydro-1H-pyrrolizin-7a(5H)-yl)methoxy)-8a,9,12,13-tetrahydro-8H,11H-7,10-dioxa-1,3,6,13a-tetraazanaphtho[1,8-ab]heptalene] | < 0.69 nM | 0.98 nM | 3.3 nM |
| CCc1c(F)ccc2cc3[nH]nc(C)c3c(-c3nc4c5c(nc(OC[C@@]67CCCN6C/C(=C\F)C7)nc5c3F)N3CCCOC[C@H]3CO4)c12 [Ex-7, (8aS)-5-(5-ethyl-6-fluoro-3-methyl-1H-benzo[f]indazol-4-yl)-4-fluoro-2-(((S,Z)-2-(fluoromethylene)tetrahydro-1H-pyrrolizin-7a(5H)-yl)methoxy)-8a,9,12,13-tetrahydro-8H,11H-7,10-dioxa-1,3,6,13a-tetraazanaphtho[1,8-ab]heptalene] | 1.4 nM | 2.8 nM | 11 nM |
| Fc1c(-c2c(C3CC3)c(Cl)cc3[nH]ncc23)nc2c3c(nc(OC[C@@]45CCCN4C[C@H](F)C5)nc13)N1CCCOC[C@H]1CO2 [Ex-3, (8aS)-5-(6-chloro-5-cyclopropyl-1H-indazol-4-yl)-4-fluoro-2-(((2R,7aS)-2-fluorotetrahydro-1H-pyrrolizin-7a(5H)-yl)methoxy)-8a,9,12,13-tetrahydro-8H,11H-7,10-dioxa-1,3,6,13a-tetraazanaphtho[1,8-ab]heptalene] | 1.3 nM | 3 nM | – |
